Consider 1 compound from paper doi:10.1101/2025.07.30.667614, “Steric control of signaling bias in the immunometabolic receptor GPR84” (bioRxiv, 2025).

pKi: −log10 of the molar value.

The assay has as its target Leu336Ala GPR84 (GPR84-Gi2 fusion protein) (Homo sapiens, UniProt Q9NQS5, L336A). The assay is described as follows: Competition binding assay with orthosteric antagonist [3H]140. Here is the method: Binding was initiated by the addition of 5 μg membrane protein generated from Flp-In™ T-REx™ cells induced to express the receptor construct of interest with 100 ng/ml doxycycline. Nonspecific binding of the radioligand was determined in the presence of 10 μM compound 837. All assays were performed at 25 °C for 1 h before termination by the addition of ice-cold phosphate-buffered saline (PBS) and vacuum filtration through GF/C glassfibre filter-bottom 96-well microplates using a UniFilter FilterMate Harvester (Revvity). Each well was washed three times with ice-cold PBS and filters were allowed to dry for 2–3 h before addition of 50 μl of Ultima Gold™ XR. Radioactivity was quantified by liquid scintillation spectrometry.

In the case of `[O-][n+]1cc(O)cc(CCc2ccc(Cl)c(C(F)(F)F)c2)c1` [OX04529], the pKi (usually the negative decadic logarithm of the Ki, by convention in mol/L) was 8.82.
